Laboratory results from US11911386B2, “Methods of treating B-cell proliferative disorder” (BeiGene Switzerland GmbH, priority 2022, dated 2024).
“And” between values parts separate entries of the source, which are not always exact repeats. Identical values can stand only once. Like-named read-outs stand apart in the source and are kept apart here.

C=CC(=O)N1CCC([C@@H]2CCNc3c(C(N)=O)c(-c4ccc(Oc5ccccc5)cc4)nn32)CC1 [zanubrutinib, (S)-7-(1-acryloylpiperidin-4-yl)-2-(4-phenoxyphenyl)-4,5,6,7-tetrahydropyrazolo[1,5-a]pyrimidine-3-carboxamide]
Anemia AESI ≥Grade 3, EAIR (After Coadministration): 0.18 per 100 person-months
Anemia AESI, EAIR (After Coadministration): 0.53 per 100 person-months
Atrial fibrillation PT (After Coadministration): 2.8%
Atrial fibrillation and flutter AESI Grade ≥3, EAIR (After Coadministration): 0.18 per 100 person-months
Atrial fibrillation and flutter AESI Grade ≥3, patients (After Coadministration): 3.7%
Atrial fibrillation and flutter AESI, EAIR (After Coadministration): 0.23 per 100 person-months
Atrial fibrillation and flutter AESI, patients (After Coadministration): 4.7%
Atrial flutter PT (After Coadministration): 1.9%
Basal cell carcinoma (After Coadministration): 5.6%
Basal cell carcinoma leading to dose interruption (After Coadministration): 1 (0.9%) n (%)
Basal cell carcinoma ≥Grade 3 (After Coadministration): 1 (0.9%) n (%)
External ear neoplasm malignant leading to dose interruption (After Coadministration): 0 (0.0%) n (%)
Febrile neutropenia PT (After Coadministration): 3.7%
Grade 3 or higher AESI (After Coadministration): 48 (44.9) n (%)
Haematuria (hemorrhage AESI) (After Coadministration): 4.7%
Haematuria (major hemorrhage) (After Coadministration): 0 (0.0%) n (%)
Haematuria (major hemorrhage) ≥Grade 3 (After Coadministration): 0 (0.0%) n (%)
Haematuria leading to dose interruption (After Coadministration): 0.0%
Haematuria ≥Grade 3 (After Coadministration): 0 (0.0%) n (%)
Hemorrhage AESI leading to dose interruption (After Coadministration): 2.8%
Hemorrhage AESI leading to dose reduction (After Coadministration): 0.9%
Hemorrhage AESI ≥Grade 3, EAIR (After Coadministration): 0.09 per 100 person-months
Hemorrhage AESI ≥Grade 3, patients (After Coadministration): 1.9%
Hemorrhage AESI, EAIR (After Coadministration): 1.39 per 100 person-months
Hemorrhage AESI, patients (After Coadministration): 23.4%
Hypertension AESI ≥Grade 3, EAIR (After Coadministration): 0.18 per 100 person-months
Hypertension AESI ≥Grade 3, patients (After Coadministration): 3.7%
Hypertension AESI, EAIR (After Coadministration): 0.37 per 100 person-months
Hypertension AESI, patients (After Coadministration): 7.5%
Infection AESI leading to dose reduction (After Coadministration): 1.9%
Infection AESI leading to treatment discontinuation (After Coadministration): 3.7%
Infection AESI ≥Grade 3, EAIR (After Coadministration): 1.45 per 100 person-months
Infection AESI, EAIR (After Coadministration): 9.70 per 100 person-months
Major hemorrhage AESI leading to dose interruption (After Coadministration): 0.9%
Major hemorrhage AESI ≥Grade 3, EAIR (After Coadministration): 0.09 per 100 person-months
Major hemorrhage AESI ≥Grade 3, patients (After Coadministration): 1.9%
Major hemorrhage AESI, EAIR (After Coadministration): 0.09 per 100 person-months
Major hemorrhage AESI, patients (After Coadministration): 1.9%
Malignant melanoma (After Coadministration): 1 (0.9%) n (%)
Neutropenia AESI leading to dose reduction (After Coadministration): 1.9%
Neutropenia AESI leading to treatment interruption (After Coadministration): 6.5%
Neutropenia AESI ≥Grade 3, EAIR (After Coadministration): 0.63 per 100 person-months
Neutropenia AESI ≥Grade 3, patients (After Coadministration): 20.1%
Neutropenia AESI, EAIR (After Coadministration): 0.92 per 100 person-months
Neutropenia AESI, patients (After Coadministration): 16.8%
Neutropenic sepsis PT (After Coadministration): 0.0%
Neutropenic sepsis ≥Grade 3 (After Coadministration): 0.0%
Neutrophil count decreased leading to dose reduction (After Coadministration): 0.0%
Opportunistic infection AESI leading to dose reduction (After Coadministration): 0.9%
Opportunistic infection AESI leading to treatment discontinuation (After Coadministration): 0.9%
Opportunistic infection AESI ≥Grade 3, EAIR (After Coadministration): 0.04 per 100 person-months
Opportunistic infection AESI ≥Grade 3, patients (After Coadministration): 1 (0.9%) n (%)
Opportunistic infection AESI, EAIR (After Coadministration): 0.13 per 100 person-months
Opportunistic infection AESI, patients (After Coadministration): 2.8%
Opportunistic infection SAEs, EAIR (After Coadministration): 0.04 per 100 person-months
Patients with at least 1 AESI (After Coadministration): 89 (83.2) n (%)
Petechiae (hemorrhage AESI) (After Coadministration): 0.0%
Platelet count decreased PT (After Coadministration): 4.7%
Platelet count decreased ≥Grade 3 (After Coadministration): 0.9%
Purpura (hemorrhage AESI) (After Coadministration): 0.0%
SAEs of opportunistic infections, patients (After Coadministration): 0.9% and 2.8%
Second primary malignancies AESI leading to dose interruption (After Coadministration): 5.6%
Second primary malignancies AESI leading to treatment discontinuation (After Coadministration): 2.8%
Second primary malignancies AESI ≥Grade 3, EAIR (After Coadministration): 0.27 per 100 person-months
Second primary malignancies AESI ≥Grade 3, patients (After Coadministration): 5.6%
Second primary malignancies AESI, EAIR (After Coadministration): 0.60 per 100 person-months
Second primary malignancies AESI, patients (After Coadministration): 12.1%
Serious anemia AESI, EAIR (After Coadministration): 0.04 per 100 person-months
Serious atrial fibrillation and flutter AESI, EAIR (After Coadministration): 0.09 per 100 person-months
Serious atrial fibrillation and flutter AESI, patients (After Coadministration): 1.9%
Serious external ear neoplasm malignant (After Coadministration): 0 (0.0%) n (%)
Serious haematuria (After Coadministration): 0 (0.0%) n (%)
Serious haematuria (major hemorrhage) (After Coadministration): 0 (0.0%) n (%)
Serious hemorrhage AESI, EAIR (After Coadministration): 0.09 per 100 person-months
Serious hemorrhage AESI, patients (After Coadministration): 1.9%
Serious infection AESI, EAIR (After Coadministration): 1.15 per 100 person-months
Serious major hemorrhage AESI, EAIR (After Coadministration): 0.09 per 100 person-months
Serious major hemorrhage AESI, patients (After Coadministration): 1.9%
Serious neutropenia AESI, EAIR (After Coadministration): 0.18 per 100 person-months
Serious neutropenia AESI, patients (After Coadministration): 3.7%
Serious neutropenic sepsis (After Coadministration): 0%
Serious neutrophil count decreased (After Coadministration): 0.0%
Serious second primary malignancies AESI, EAIR (After Coadministration): 0.13 per 100 person-months
Serious second primary malignancies AESI, patients (After Coadministration): 2.8%
Serious squamous cell carcinoma of skin (After Coadministration): 0 (0.0%) n (%)
Skin cancer AESI ≥Grade 3, EAIR (After Coadministration): 0.13 per 100 person-months
Skin cancer AESI, EAIR (After Coadministration): 0.41 per 100 person-months
Skin cancer AESI, patients (After Coadministration): 8.4%
Skin cancer SAE, EAIR (After Coadministration): 0.04 per 100 person-months
Squamous cell carcinoma of skin (After Coadministration): 0.9%
Squamous cell carcinoma of skin ≥Grade 3 (After Coadministration): 1 (0.9%) n (%)
Thrombocytopenia AESI leading to dose interruption (After Coadministration): 0.0%
Thrombocytopenia AESI ≥Grade 3, EAIR (After Coadministration): 0.13 per 100 person-months
Thrombocytopenia AESI ≥Grade 3, patients (After Coadministration): 2.8%
Thrombocytopenia AESI, EAIR (After Coadministration): 0.41 per 100 person-months
Thrombocytopenia AESI, patients (After Coadministration): 8.4%
Thrombocytopenia PT (After Coadministration): 3.7%
Anemia AESI ≥Grade 3, EAIR (During Coadministration): 1.70 per 100 person-months
Anemia AESI, EAIR (During Coadministration): 1.91 per 100 person-months
Atrial fibrillation PT (During Coadministration): 1.4%
Atrial fibrillation and flutter AESI Grade ≥3, EAIR (During Coadministration): 0.33 per 100 person-months
Atrial fibrillation and flutter AESI Grade ≥3, patients (During Coadministration): 1.4%
Atrial fibrillation and flutter AESI, EAIR (During Coadministration): 0.33 per 100 person-months
Atrial fibrillation and flutter AESI, patients (During Coadministration): 1.4%
Atrial flutter PT (During Coadministration): 0.0%
Basal cell carcinoma (During Coadministration): 0.0%
Basal cell carcinoma leading to dose interruption (During Coadministration): 0 (0.0%) n (%)
Basal cell carcinoma ≥Grade 3 (During Coadministration): 0 (0.0%) n (%)
Epistaxis (hemorrhage AESI) (During Coadministration): 1.4%
External ear neoplasm malignant leading to dose interruption (During Coadministration): 1 (0.7%) n (%)
Febrile neutropenia PT (During Coadministration): 2.9%
Grade 3 or higher AESI (During Coadministration): 36 (26.1) n (%)
Haematuria (hemorrhage AESI) (During Coadministration): 1.4%
Haematuria (major hemorrhage) (During Coadministration): 0 (0.0%) n (%)
Haematuria (major hemorrhage) ≥Grade 3 (During Coadministration): 0 (0.0%) n (%)
Haematuria leading to dose interruption (During Coadministration): 0 (0.0%) n (%)
Haematuria ≥Grade 3 (During Coadministration): 0 (0.0%) n (%)
Hemorrhage AESI leading to dose interruption (During Coadministration): 0.7%
Hemorrhage AESI ≥Grade 3, EAIR (During Coadministration): 0.16 per 100 person-months
Hemorrhage AESI ≥Grade 3, patients (During Coadministration): 0.7%
Hemorrhage AESI, EAIR (During Coadministration): 4.04 per 100 person-months
Hemorrhage AESI, patients (During Coadministration): 14.5%
Herpes zoster (During Coadministration): 2.2%
Hypertension AESI ≥Grade 3, EAIR (During Coadministration): 0.17 per 100 person-months
Hypertension AESI ≥Grade 3, patients (During Coadministration): 0.7%
Hypertension AESI, EAIR (During Coadministration): 0.70 per 100 person-months
Hypertension AESI, patients (During Coadministration): 2.9%
Infection AESI leading to dose reduction (During Coadministration): 1.4%
Infection AESI leading to treatment discontinuation (During Coadministration): 4.3%
Infection AESI ≥Grade 3, EAIR (During Coadministration): 5.83 per 100 person-months
Infection AESI, EAIR (During Coadministration): 16.79 per 100 person-months
Major hemorrhage AESI leading to dose interruption (During Coadministration): 0.7%
Major hemorrhage AESI ≥Grade 3, EAIR (During Coadministration): 0.16 per 100 person-months
Major hemorrhage AESI ≥Grade 3, patients (During Coadministration): 0.7%
Major hemorrhage AESI, EAIR (During Coadministration): 0.16 per 100 person-months
Major hemorrhage AESI, patients (During Coadministration): 0.7%
Malignant melanoma (During Coadministration): 0 (0.0%) n (%)
Neutropenia AESI leading to dose reduction (During Coadministration): 0.0%
Neutropenia AESI leading to treatment interruption (During Coadministration): 7.2%
Neutropenia AESI ≥Grade 3, EAIR (During Coadministration): 3.72 per 100 person-months
Neutropenia AESI ≥Grade 3, patients (During Coadministration): 12.3%
Neutropenia AESI, EAIR (During Coadministration): 5.43 per 100 person-months
Neutropenia AESI, patients (During Coadministration): 17.4%
Neutropenic sepsis PT (During Coadministration): 0.0%
Neutropenic sepsis ≥Grade 3 (During Coadministration): 0.0%
Neutrophil count decreased leading to dose reduction (During Coadministration): 0.0%
Opportunistic infection AESI leading to dose reduction (During Coadministration): 0.7%
Opportunistic infection AESI leading to treatment discontinuation (During Coadministration): 0.7%
Opportunistic infection AESI ≥Grade 3, EAIR (During Coadministration): 0.50 per 100 person-months
Opportunistic infection AESI ≥Grade 3, patients (During Coadministration): 3 (2.2%) n (%)
